Reference: US20260062387A1, “SALT-INDUCIBLE KINASE INHIBITOR COMPOUND AND PHARMACEUTICAL COMPOSITION INCLUDING THE SAME” (MITSUBISHI TANABE PHARMA CORPORATION, priority 2023, published 2026)

Columns and labels:
Type in all cases: biochemical
GST-tagged SIK2 = GST-tagged SIK2 (Homo sapiens (Human), UniProt Q9H0K1); experiment: SIK2 inhibition test (ADP-Glo Max Assay); conditions: enzyme 3 nM, AMARA Peptide 200 μM, ATP 1 mM, 2 hours room temperature
How it was run: (§1)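 ADP formed was detected by luciferase luminescence after a 2 h room-temperature reaction with 1 mM ATP, 5 mM MgCl2 and AMARA peptide at 200 μM (SIK1, SIK2) or 100 μM (SIK3). Final GST-enzyme levels were 20 nM SIK1, 3 nM SIK2 and 100 nM SIK3. IC50 came from 16-point concentration-response data.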

GST-tagged SIK1 = GST-tagged SIK1 (Homo sapiens (Human), UniProt P57059); experiment: SIK1 inhibition test (ADP-Glo Max Assay); conditions: enzyme 20 nM, AMARA Peptide 200 μM, ATP 1 mM, 2 hours room temperature
How it was run: as §1

GST-tagged SIK3 = GST-tagged SIK3 (Homo sapiens (Human), UniProt Q9Y2K2); experiment: SIK3 inhibition test (ADP-Glo Max Assay); conditions: enzyme 100 nM, AMARA Peptide 100 μM, ATP 1 mM, 2 hours room temperature
How it was run: as §1

Chain of GST-tagged SIK1 (P57059 whole entry): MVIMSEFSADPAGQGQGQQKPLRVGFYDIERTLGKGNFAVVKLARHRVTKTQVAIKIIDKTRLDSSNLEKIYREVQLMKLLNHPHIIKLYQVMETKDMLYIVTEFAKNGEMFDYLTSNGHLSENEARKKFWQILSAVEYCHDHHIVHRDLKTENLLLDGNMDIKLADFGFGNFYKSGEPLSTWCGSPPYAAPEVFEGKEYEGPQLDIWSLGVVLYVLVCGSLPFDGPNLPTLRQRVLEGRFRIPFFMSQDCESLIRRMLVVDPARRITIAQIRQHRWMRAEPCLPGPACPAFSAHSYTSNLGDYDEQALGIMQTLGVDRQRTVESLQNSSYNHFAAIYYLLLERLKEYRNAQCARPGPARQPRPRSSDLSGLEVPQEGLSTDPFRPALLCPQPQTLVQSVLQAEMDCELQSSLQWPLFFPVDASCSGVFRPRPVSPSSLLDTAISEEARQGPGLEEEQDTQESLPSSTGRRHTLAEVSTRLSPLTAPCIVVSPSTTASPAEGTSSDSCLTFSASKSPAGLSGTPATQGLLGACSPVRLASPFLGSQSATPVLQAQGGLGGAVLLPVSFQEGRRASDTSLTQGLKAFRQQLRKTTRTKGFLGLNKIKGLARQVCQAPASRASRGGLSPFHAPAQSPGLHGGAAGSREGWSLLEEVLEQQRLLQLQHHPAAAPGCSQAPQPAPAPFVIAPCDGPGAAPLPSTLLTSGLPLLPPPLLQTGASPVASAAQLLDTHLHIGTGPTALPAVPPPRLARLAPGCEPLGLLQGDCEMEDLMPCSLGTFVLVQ
Chain of GST-tagged SIK3 (Q9Y2K2 whole entry): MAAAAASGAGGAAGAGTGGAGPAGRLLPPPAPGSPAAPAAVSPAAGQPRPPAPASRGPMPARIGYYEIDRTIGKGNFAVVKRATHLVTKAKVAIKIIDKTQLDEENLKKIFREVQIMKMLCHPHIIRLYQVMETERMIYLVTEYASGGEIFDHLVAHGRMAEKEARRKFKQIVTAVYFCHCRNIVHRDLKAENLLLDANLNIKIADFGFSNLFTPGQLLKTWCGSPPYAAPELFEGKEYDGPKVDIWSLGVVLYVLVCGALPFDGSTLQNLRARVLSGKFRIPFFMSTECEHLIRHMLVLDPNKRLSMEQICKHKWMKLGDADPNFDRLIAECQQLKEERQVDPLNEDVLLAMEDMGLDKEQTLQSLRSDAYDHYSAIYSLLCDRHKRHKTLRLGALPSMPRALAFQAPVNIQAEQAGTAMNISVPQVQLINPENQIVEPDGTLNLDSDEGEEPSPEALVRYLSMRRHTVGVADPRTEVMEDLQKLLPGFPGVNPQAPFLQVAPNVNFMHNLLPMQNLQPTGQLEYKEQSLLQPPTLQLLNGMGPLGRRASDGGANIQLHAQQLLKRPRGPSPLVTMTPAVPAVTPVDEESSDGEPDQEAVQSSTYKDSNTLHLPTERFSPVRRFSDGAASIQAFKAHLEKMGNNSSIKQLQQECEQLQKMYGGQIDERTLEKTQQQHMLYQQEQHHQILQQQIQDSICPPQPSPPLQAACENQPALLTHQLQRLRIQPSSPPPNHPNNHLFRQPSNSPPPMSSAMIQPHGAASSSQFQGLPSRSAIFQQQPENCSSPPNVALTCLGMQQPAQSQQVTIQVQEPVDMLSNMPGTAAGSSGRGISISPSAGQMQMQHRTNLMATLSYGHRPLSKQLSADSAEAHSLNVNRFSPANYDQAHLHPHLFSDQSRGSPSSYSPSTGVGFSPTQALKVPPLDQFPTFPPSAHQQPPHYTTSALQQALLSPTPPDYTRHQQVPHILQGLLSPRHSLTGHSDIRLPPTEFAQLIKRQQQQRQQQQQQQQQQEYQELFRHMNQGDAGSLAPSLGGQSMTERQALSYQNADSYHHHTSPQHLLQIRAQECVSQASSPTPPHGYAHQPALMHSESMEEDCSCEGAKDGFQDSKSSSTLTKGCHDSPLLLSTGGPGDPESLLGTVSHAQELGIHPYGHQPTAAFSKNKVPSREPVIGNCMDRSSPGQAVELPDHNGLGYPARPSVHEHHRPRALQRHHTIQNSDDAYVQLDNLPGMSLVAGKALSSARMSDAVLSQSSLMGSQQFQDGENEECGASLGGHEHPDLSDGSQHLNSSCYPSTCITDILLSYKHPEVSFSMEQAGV
Chain of GST-tagged SIK2 (Q9H0K1 whole entry): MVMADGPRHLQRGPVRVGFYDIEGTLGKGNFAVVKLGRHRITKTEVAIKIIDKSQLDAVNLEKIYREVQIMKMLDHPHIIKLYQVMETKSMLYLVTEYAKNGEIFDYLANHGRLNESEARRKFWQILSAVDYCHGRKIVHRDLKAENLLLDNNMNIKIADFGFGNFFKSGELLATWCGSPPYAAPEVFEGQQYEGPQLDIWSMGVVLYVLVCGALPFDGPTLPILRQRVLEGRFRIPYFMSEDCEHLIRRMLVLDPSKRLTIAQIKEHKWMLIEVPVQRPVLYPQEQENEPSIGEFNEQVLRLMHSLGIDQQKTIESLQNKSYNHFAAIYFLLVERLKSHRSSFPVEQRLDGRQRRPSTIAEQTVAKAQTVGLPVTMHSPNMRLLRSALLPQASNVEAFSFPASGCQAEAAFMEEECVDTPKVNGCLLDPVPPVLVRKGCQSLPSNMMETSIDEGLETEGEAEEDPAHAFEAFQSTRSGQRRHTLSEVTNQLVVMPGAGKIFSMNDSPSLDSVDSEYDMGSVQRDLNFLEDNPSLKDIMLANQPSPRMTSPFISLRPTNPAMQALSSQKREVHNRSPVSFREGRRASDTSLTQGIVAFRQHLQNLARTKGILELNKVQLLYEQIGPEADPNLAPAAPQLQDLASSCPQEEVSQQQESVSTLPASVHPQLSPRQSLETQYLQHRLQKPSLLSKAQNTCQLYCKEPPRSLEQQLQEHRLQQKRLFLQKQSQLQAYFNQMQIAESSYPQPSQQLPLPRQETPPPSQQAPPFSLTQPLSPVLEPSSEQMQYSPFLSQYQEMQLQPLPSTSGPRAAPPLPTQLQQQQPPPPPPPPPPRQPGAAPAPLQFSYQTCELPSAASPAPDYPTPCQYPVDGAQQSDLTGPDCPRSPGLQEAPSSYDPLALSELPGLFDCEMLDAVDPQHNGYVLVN

SMILES | IC50 (GST-tagged SIK2) [nM] | IC50 (GST-tagged SIK1) [nM] | IC50 (GST-tagged SIK3) [nM]
COc1cc(-c2c3c(C#N)cc(-c4cnn(C5CCOC5)c4)cc3nn2C)cc(OC(F)F)c1C(=O)N[C@@H]1C[C@@H]1F (stereo partly drawn) [Example 22, 4-[4-cyano-2-methyl-6-[1-(oxolan-3-yl)pyrazol-4-yl]indazol-3-yl]-2-(difluoromethoxy)-N-[(1R,2S)-2-fluorocyclopropyl]-6-methoxybenzamide] | 3.2 | 2 | 7.7
COc1cc(-c2c3c(C#N)cc(-c4cnn(C)c4)cc3nn2C)cc(OC(F)F)c1C(=O)NCC1(F)CC1 [Example 12, 4-[4-cyano-2-methyl-6-(1-methylpyrazol-4-yl)indazol-3-yl]-2-(difluoromethoxy)-N-[(1-fluorocyclopropyl)methyl]-6-methoxybenzamide] | 7 | 12.4 | 7
COCCn1cc(-c2cc(OC(F)F)c3c(-c4cc(OC)c(C(N)=O)c(OC(F)F)c4)n(C)nc3c2)cn1 [Example 154, 2-(difluoromethoxy)-4-[4-(difluoromethoxy)-6-[1-(2-methoxyethyl)pyrazol-4-yl]-2-methylindazol-3-yl]-6-methoxybenzamide] | 1.2 | 7.6 | 9.5
CCOc1cc(-c2cnn(C)c2)cc2nn(C)c(-c3cc(OC)c(C(=O)N4CC(O)(C(F)(F)F)C4)c(OC(F)F)c3)c12 [Example 42, [2-(difluoromethoxy)-4-[4-ethoxy-2-methyl-6-(1-methylpyrazol-4-yl)indazol-3-yl]-6-methoxyphenyl]-[3-hydroxy-3-(trifluoromethyl)azetidin-1-yl]methanone] | 12.8 | 2 | 10.5
COc1cc(-c2c3c(C#N)cc(-c4cnn(C)c4)cc3nn2C)cc(OC(F)F)c1C(=O)N1CC(N)(C(F)(F)F)C1 [Example 36, 3-[4-[3-amino-3-(trifluoromethyl)azetidin-1-carbonyl]-3-(difluoromethoxy)-5-methoxyphenyl]-2-methyl-6-(1-methylpyrazol-4-yl)indazole-4-carbonitrile] | 15.4 | 12.5 | 10.2
COc1cc(-c2c3c(C#N)cc(-c4cnn(C)c4)cc3nn2C)cc(OC(F)F)c1C(=O)N1CC(O)(C(F)F)C1 [Example 25, 3-[3-(difluoromethoxy)-4-[3-(difluoromethyl)-3-hydroxyazetidin-1-carbonyl]-5-methoxyphenyl]-2-methyl-6-(1-methylpyrazol-4-yl)indazole-4-carbonitrile] | 10.5 | 9.6 | 12.8
COc1cc(-c2c3c(C#N)cc(-c4cnn(C)c4)cc3nn2C)cc2c1C(=O)NCC2(C)C [Example 129, 3-(8-methoxy-4,4-dimethyl-1-oxo-2,3-dihydroisoquinolin-6-yl)-2-methyl-6-(1-methylpyrazol-4-yl)indazol-4-carbonitrile] | 0.9 | 5.1 | 6.6
COc1cc(-c2c3c(C#N)cc(-c4cnn(CC5CS(=O)(=O)C5)c4)cc3nn2C)cc(OC(F)F)c1C(=O)NCC1(F)CC1 [Example 74, 4-[4-cyano-6-[1-[(1,1-dioxothietan-3-yl)methyl]pyrazol-4-yl]-2-methylindazol-3-yl]-2-(difluoromethoxy)-N-[(1-fluorocyclopropyl)methyl]-6-methoxybenzamide] | 2.6 | 8.4 | 6.1
COc1cc(-c2c3c(C#N)cc(-c4cnn(CC5CCCO5)c4)cc3nn2C)cc(OC(F)F)c1C(=O)NCC1(F)CC1 (stereo not drawn) [Example 79, 4-[4-cyano-2-methyl-6-[1-(oxolan-2-ylmethyl)pyrazol-4-yl]indazol-3-yl]-2-(difluoromethoxy)-N-[(1-fluorocyclopropyl)methyl]-6-methoxybenzamide] | 6.8 | 12.5 | 8.1
COc1cc(-c2c3c(C#N)cc(-c4cnn(CC5CCOC5)c4)cc3nn2C)cc(OC(F)F)c1C(=O)NCC1(F)CC1 (stereo not drawn) [Example 78, 4-[4-cyano-2-methyl-6-[1-(oxolan-3-ylmethyl)pyrazol-4-yl]indazol-3-yl]-2-(difluoromethoxy)-N-[(1-fluorocyclopropyl)methyl]-6-methoxybenzamide] | 5.4 | 12.6 | 6.7
COCCn1cc(-c2cc(OC)c3c(-c4cc(OC(F)F)c5c(c4)[C@@H](C)CNC5=O)n(C)nc3c2)cn1 (single isomer, unassigned) [Example 177] | 3.1 | 5.4 | 10.1
COc1cc(-c2c3c(C#N)cc(-c4cnn(CC(=O)N(C)C)c4)cc3nn2C)cc(OC(F)F)c1C(=O)NCC1(F)CC1 [Example 98, 4-[4-cyano-6-[1-[2-(dimethylamino)-2-oxoethyl]pyrazol-4-yl]-2-methylindazol-3-yl]-2-(difluoromethoxy)-N-[(1-fluorocyclopropyl)methyl]-6-methoxybenzamide] | 10.5 | 17.9 | 10.3
COc1cc(-c2cnn(C[C@H](C)O)c2)cc2nn(C)c(-c3cc(OC(F)F)c4c(c3)[C@@H](C)CNC4=O)c12 (single isomer, unassigned) [Example 175] | 2.9 | 7.5 | 7.2
CCn1cc(-c2cc(C#N)c3c(-c4cc(OC)c(C(=O)N[C@@H]5C[C@@H]5F)c(OC(F)F)c4)n(C)nc3c2)cn1 [Example 18, 4-[4-cyano-6-(1-ethylpyrazol-4-yl)-2-methylindazol-3-yl]-2-(difluoromethoxy)-N-[(1R,2S)-2-fluorocyclopropyl]-6-methoxybenzamide] | 3.1 | 1.4 | 7
COc1cc(-c2c3c(C#N)cc(-c4cnn(CC5CC5)c4)cc3nn2C)cc2c1C(=O)NC[C@@H]2C (single isomer, unassigned) [Example 170] | 1.7 | 8.5 | 4.3
COc1cc(-c2c3c(C#N)cc(-c4cnn(C[C@@H](C)O)c4)cc3nn2C)cc(OC(F)F)c1C(=O)NCC1(F)CC1 [Example 57, 4-[4-cyano-6-[1-[(2R)-2-hydroxypropyl]pyrazol-4-yl]-2-methylindazol-3-yl]-2-(difluoromethoxy)-N-[(1-fluorocyclopropyl)methyl]-6-methoxybenzamide] | 10 | 16 | 9.2

More lines, in order of falling IC50 (GST-tagged SIK2), values ahead:

IC50 (GST-tagged SIK2) [nM] | IC50 (GST-tagged SIK1) [nM] | IC50 (GST-tagged SIK3) [nM] | SMILES
86.4 | 1000 | 39.7 | COc1cc(-n2cnc3cc(-c4cnn(C)c4)ccc32)cc(OC)c1C(=O)NCC(F)F [Comparative Example 2, reference compound]
11.2 | 15.3 | 3.7 | COc1cc(-c2c3c(C#N)cc(-c4cn[nH]c4)cc3nn2C)cc(OC(F)F)c1C(=O)N1CC(O)(C(F)(F)F)C1 [Example 70, 3-[3-(difluoromethoxy)-4-[3-hydroxy-3-(trifluoromethyl)azetidin-1-carbonyl]-5-methoxyphenyl]-2-methyl-6-(1H-pyrazol-4-yl)indazole-4-carbonitrile]
7.9 | 15.8 | 4.4 | COc1cc(-c2c3c(C#N)cc(-c4cnn(CCC5(O)CCC5)c4)cc3nn2C)cc(OC(F)F)c1C(=O)NCC1(F)CC1 [Example 122, 4-[4-cyano-6-[1-[2-(1-hydroxycyclobutyl)ethyl]pyrazol-4-yl]-2-methylindazol-3-yl]-2-(difluoromethoxy)-N-[(1-fluorocyclopropyl)methyl]-6-methoxybenzamide]
6.1 | 19.4 | 3.5 | C[C@H]1CNC(=O)c2c(OC(F)F)cc(-c3c4c(C#N)cc(-c5cnn(C)c5)cc4nn3C)cc21 (single isomer, unassigned) [Example 181]
4.1 | 12.6 | 0.7 | COc1cc(-c2c3c(C#N)cc(-c4cnn(CC(C)(C)O)c4)cc3nn2C)cc(OC(F)F)c1C(=O)N[C@@H]1CC1(F)F [Example 114]
3.6 | 12.6 | 7.8 | COc1cc(-c2c3c(C#N)cc(-c4cnn(CC(F)(F)F)c4)cc3nn2C)cc2c1C(=O)NCC2(C)C [Example 146, 3-(8-methoxy-4,4-dimethyl-1-oxo-2,3-dihydroisoquinolin-6-yl)-2-methyl-6-[1-(2,2,2-trifluoroethyl)pyrazol-4-yl]indazole-4-carbonitrile]
3.5 | 9.8 | 14.2 | COCCCn1cc(-c2cc(C#N)c3c(-c4cc(OC)c5c(c4)C(C)(C)CNC5=O)n(C)nc3c2)cn1 [Example 151, 3-(8-methoxy-4,4-dimethyl-1-oxo-2,3-dihydroisoquinolin-6-yl)-6-[1-(3-methoxypropyl)pyrazol-4-yl]-2-methylindazole-4-carbonitrile]
2.7 | 14.8 | 13.3 | COc1cc(-c2c3c(C#N)cc(-c4cnn(Cc5ncco5)c4)cc3nn2C)cc(OC(F)F)c1C(=O)NCC1(F)CC1 [Example 75]
2.1 | 13.6 | 4.9 | COCCn1cc(-c2cc(C#N)c3c(-c4cc(OC)c(C(N)=O)c(OC(F)F)c4)n(C)nc3c2)cn1 [Example 133, 4-[4-cyano-6-[1-(2-methoxyethyl)pyrazol-4-yl]-2-methylindazol-3-yl]-2-(difluoromethoxy)-6-methoxybenzamide]
2.1 | 5.9 | 2.2 | COc1cc(-c2c3c(C#N)cc(-c4cnn(C)c4)cc3nn2C)cc(OC(F)F)c1C(=O)N[C@@H]1C[C@@H]1F [Example 1, 4-[4-cyano-2-methyl-6-(1-methylpyrazol-4-yl)indazol-3-yl]-2-(difluoromethoxy)-N-[(1R,2S)-2-fluorocyclopropyl]-6-methoxybenzamide]
